Data: patent US11766447B2, “3′3′-cyclic dinucleotide analogue comprising a cyclopentanyl modified nucleotide as sting modulator” (INSTITUTE OF ORGANIC CHEMISTRY AND BIOCHEMISTRY ASCR, V.V.I., priority 2019, dated 2023)

Columns and labels:
AQ STING (G230A-R293Q) = target: T1, AQ STING (G230A-R293Q) (Homo sapiens, UniProt Q86WV6, G230A/H232R/R293Q); assay: Differential scanning fluorimetry (DSF) with AQ STING; assay type: binding; conditions: thermal shift vs apoprotein; 150 μM CDN; truncated human AQ STING 0.1 mg/ml
T1 construct: 8xHis (N, cleaved yes); SUMO (N, cleaved yes); made in house; host or cells: E. coli Rosetta-gami B (DE3)
T1 sequence (Q86WV6 140-343 G230A/H232R/R293Q): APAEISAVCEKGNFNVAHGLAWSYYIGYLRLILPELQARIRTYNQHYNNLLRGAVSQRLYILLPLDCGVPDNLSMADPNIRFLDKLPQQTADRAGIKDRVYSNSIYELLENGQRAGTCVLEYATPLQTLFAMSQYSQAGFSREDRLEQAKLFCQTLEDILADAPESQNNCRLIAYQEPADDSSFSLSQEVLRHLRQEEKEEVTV
Protocol: (§1) Purified PCR products were cleaved with restriction enzymes BamHI (cat. #R0136S, NEB, Ipswich, USA) and NotI (cat. #R0189S, NEB, Ipswich, USA) and cloned into the pSUMO vector linearized with the identical enzymes.
(§2) DNase I (cat. #D5025, Sigma Aldrich, Czech Republic) and RNase A (cat. #R6513, Sigma Aldrich, Czech Republic) were added (final concentration 50 μg/ml) together with MgCl2 (final concentration 5 mmol·l^−1) to the homogenate and bacteria were lysed using French Press G-M™ High-Pressure Cell Press Homogenizer (1500 psi, 3 cycles). […] The resin was poured into a chromatography column, washed with 50 ml buffer A (50 mmol·l^−1 TrisCl (pH 8.0), 800 mmol·l^−1 NaCl, 3 mmol·l^−1 β-mercaptoethanol; 10% glycerol; 20 mmol·l^−1 imidazol) and 8-His-SUMO tagged STING proteins were eluted with 15 ml buffer A containing 300 mmol·l^−1 imidazole. […] Proteins were concentrated with Amicon® Ultra-15 10 K device (cat. #UFC901008, Merck Millipore, Billerica, USA) and flash frozen in liquid N2.
(§3) 20 μL solutions of the reaction mixtures were pipetted in triplicates into 96 well optical reaction plates and thermal denaturation of samples were performed on real time PCR cycler (LightCycler® 480 Instrument II—Roche, Basel, Switzerland). The first derivative of the thermal denaturation curves was performed to calculate denaturing temperatures of STING-CDN complexes and STING apoproteins. The thermal shift for each CDN was calculated by subtracting the average denaturing temperature of STING apoprotein from the average denaturing temperature of STING CDN complex.

WT STING [1] = target: T2, WT STING (Homo sapiens, UniProt Q86WV6, H232R); assay: Digitonin assay using 293T wtSTING-FL reporter cells; assay type: cell-based; design: host or cells: 293T (ATCC CRL-3216), stably transfected, with 4xISRE firefly luciferase reporter; conditions: 293T wtSTING-FL cells, ISRE firefly luciferase; compounds in Digitonin buffer 30 minutes, then 5 hours; 8-point curve
Excerpt: Two complementary oligonucleotides of the sequence […] […] […] […] […] The oligonucleotides were mixed in equal molar amounts, hybridized, and cleaved by restriction endonucleases HindIII (cat. #. R0104S, NEB, Ipswich, USA) and BglII (cat. #R0144S, NEB, Ipswich, USA). Ultimately, they were ligated into plasmid pGL4.27 (cat. #E6651, Promega, Madison, USA) linearized with the same enzymes. As result the sequence with four ISRE sites was placed upstream of the minimum promoter of firefly luciferase reporter gene.
After 5 minutes incubation at room temperature (RT), 250 μL of the mixture was added dropwise to the cells in one well. Cells were incubated 36 hours at 37° C. with 5% CO2, and then detached with 0.05% Trypsin and 0.22 g/L EDTA (both cat. #L0941, Biowest, Riverside, USA).
Transfected cells were seeded onto poly-D-lysine coated six well plates at density 50,000 cells per 1 cm^2 in DMEM medium with high glucose containing 10% heat inactivated FBS, 30 μg/mL blasticidin (cat. #ant-b1-05, InvivoGen, San Diego, USA), 0.06 mg/ml Penicillin G and 0.1 mg/ml Streptomycin Sulfate (both cat. #. L0018, Biowest, Riverside, USA). The medium was replenished every 3-4 days until visible colonies of cells resistant to blasticidin were formed.
Blasticidin resistant cells stably expressing WT STING were further transfected with […] plasmid following the same procedure as described above. […] Homogeneous culture of stably double transfected cells was prepared by limiting dilution of cells in 96 well plates and wells with cells were selected that originated from a single cell.
The medium was removed next day and three fold serial dilutions of compounds in Digitonin buffer containing 50 mmol·l^−1 HEPES (cat. #H3375, Sigma Aldrich, Czech Republic) pH 7.0, 100 mmol·l^−1 KCl, 3 mmol·l^−1 MgCl2, 0.1 mmol·l^−1 DTT (cat. #D0632, Sigma Aldrich, Czech Republic), 85 mmol·l^−1 Sucrose (cat. #S7903, Sigma Aldrich, Czech Republic), 0.2% BSA (cat. #A2153, Sigma Aldrich, Czech Republic), 1 mmol·l^−1 ATP (cat. #A1852, Sigma Aldrich, Czech Republic), 0.1 mmol·l^−1 GTP (cat. #G8877, Sigma Aldrich, Czech Republic), and 10 μg/mL Digitonin A (cat. #D141, Sigma Aldrich, Czech Republic) were added to the cells. The buffer was removed after 30 minutes incubation at 37° C. with 5% CO2, the cells were washed once with 100 μl of cultivation medium, and 100 μl of medium was added to each well. The plates with cells were incubated for 5 hours at 37° C. with 5% CO2, 50 μl of the medium was removed and 30 μl of ONE-Glo™ Luciferase Assay System reagent (cat. #E6120, Promega, Madison, USA) was added to each well. Luminescence was read on Synergy H1 (Biotek, Winooski, USA). GraphPad Prism (La Jolla, USA) was used to calculate the 50% effective concentration ([…] from an 8-point dose-response curve.
Target sequence in this assay (Q86WV6 whole entry H232R): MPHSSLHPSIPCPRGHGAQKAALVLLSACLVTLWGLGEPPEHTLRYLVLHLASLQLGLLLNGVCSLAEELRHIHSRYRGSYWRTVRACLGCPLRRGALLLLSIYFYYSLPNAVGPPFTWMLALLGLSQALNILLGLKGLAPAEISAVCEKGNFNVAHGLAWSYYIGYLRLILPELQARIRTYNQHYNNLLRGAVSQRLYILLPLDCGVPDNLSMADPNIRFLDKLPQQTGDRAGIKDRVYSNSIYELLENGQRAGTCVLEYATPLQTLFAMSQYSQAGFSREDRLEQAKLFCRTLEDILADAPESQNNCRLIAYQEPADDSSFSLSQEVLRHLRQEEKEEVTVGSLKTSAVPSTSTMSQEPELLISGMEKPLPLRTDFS

WT STING [2] = target: T2, WT STING; assay: Differential scanning fluorimetry (DSF) with WT STING; assay type: binding; design: 8xHis (N, cleaved yes); SUMO (N, cleaved yes); made in house; host or cells: E. coli Rosetta-gami B (DE3); conditions: thermal shift vs apoprotein; 150 μM CDN; truncated human WT STING 0.1 mg/ml
Protocol: as §1, §2, §3
Target sequence in this assay (Q86WV6 140-343 H232R): as the sequence (Q86WV6 140-343 G230A/H232R/R293Q) above, with A91G, Q154R counted along it

SMILES | DSF ΔTm (° C.) AQ STING (AQ STING (G230A-R293Q)) | EC50 (WT STING [1]) | DSF ΔTm (° C.) WT STING (WT STING [2]) | ΔTm at 150 µM (AQ STING (G230A-R293Q)) | ΔTm at 150 µM (WT STING [2])
Nc1nc2c(ncn2[C@@H]2O[C@@H]3COP(=O)(O)O[C@H]4[C@@H](O)[C@H](n5cnc6c(=O)[nH]c(N)nc65)O[C@@H]4COP(=O)(O)O[C@H]3[C@H]2O)c(=O)[nH]1 [3′3′c-di-GMP, reference compound] | 7.7 °C | 5.8 µM | 2.6 °C |  | 
Nc1nc2c(ncn2[C@@H]2C[C@@H]3COP(=O)(O)OC4C[C@H](n5cnc6c(N)ncnc65)O[C@@H]4COP(=O)(O)OC3C2O)c(=O)[nH]1 (stereo partly drawn) [Compound 106, 2-amino-9-((2R,3aS,7aR,9R,10S,10aR,14aR)-2-(6-amino-9H-purin-9-yl)-5,10,12-trihydroxy-5,12-dioxidodecahydro-2H-cyclopenta[d]furo[3,2-j][1,3,7,9]tetraoxa[2,8]diphosphacyclododecin-9-yl)-1,9-dihydro-6H-purin-6-one] |  | 0.4 µM |  | 9 °C | 1.9 °C
Nc1ncnc2c1ncn2[C@@H]1O[C@@H]2COP(=O)(O)OC3C(O)[C@H](n4cnc5c(=O)[nH]cnc54)C[C@@H]3COP(=O)(O)OC2C1F (stereo partly drawn) [Compound 107, 9-((2R,3R,3aR,7aR,9R,10S,10aR,14aR)-2-(6-amino-9H-purin-9-yl)-3-fluoro-5,10,12-trihydroxy-5,12-dioxidodecahydro-2H-cyclopenta[d]furo[3,2-j][1,3,7,9]tetraoxa[2,8]diphosphacyclododecin-9-yl)-1,9-dihydro-6H-purin-6-one] |  | 0.01 µM |  | 16.7 °C | 7.6 °C
Nc1nc2c(ncn2[C@H]2CC3OP(=O)(O)OC[C@H]4C[C@@H](n5cnc6c(N)ncnc65)C(O)C4OP(=O)(O)OC[C@H]3O2)c(=O)[nH]1 (stereo partly drawn) [Compound 110, 2-amino-9-((2R,3a5,7aR,9R,10S,10aR,14aR)-9-(6-amino-9H-purin-9-yl)-5,10,12-trihydroxy-5,12-dioxidodecahydro-2H-cyclopenta[d]furo[3,2-j][1,3,7,9]tetraoxa[2,8]diphosphacyclododecin-2-yl)-1,9-dihydro-6H-purin-6-one] |  | 0.05 µM |  | 15.7 °C | 5.8 °C
Nc1nc2c(ncn2[C@H]2CC3OP(=O)(O)OC[C@H]4O[C@@H](n5cnc6c(N)ncnc65)C(O)C4OP(=O)(O)OC[C@H]3C2)c(=O)[nH]1 (stereo partly drawn) [Compound 115, (6R,8R,15R,17R)-17-(2-amino-6-oxo-6,9-dihydro-1H-purin-9-yl)-8-(6-amino-9H-purin-9-yl)-3,9,12-trihydroxy-2,4,7,11,13-pentaoxa-3λ^5,12λ^5-diphosphatricyclo[13.3.0.0^6,10]octadecane-3,12-dione] |  | 0.07 µM |  | 10.5 °C | 3.8 °C

Further lines, results first:

DSF ΔTm (° C.) AQ STING (AQ STING (G230A-R293Q)) | EC50 (WT STING [1]) | DSF ΔTm (° C.) WT STING (WT STING [2]) | ΔTm at 150 µM (AQ STING (G230A-R293Q)) | ΔTm at 150 µM (WT STING [2]) | SMILES
11.3 °C | 0.8 µM | 3.6 °C |  |  | Nc1nc2c(ncn2[C@@H]2C[C@@H]3COP(=O)(O)O[C@H]4[C@@H](O)[C@H](n5cnc6c(N)ncnc65)O[C@@H]4COP(=O)(O)O[C@H]3[C@H]2O)c(=O)[nH]1 [Compound 101, 2-amino-9-((2R,3R,3aS,7aR,9R,10S,10aR,14aR)-2-(6-amino-9H-purin-9-yl)-3,5,10,12-tetrahydroxy-5,12-dioxidodecahydro-2H-cyclopenta[d]furo[3,2-j][1,3,7,9]tetraoxa[2,8]diphosphacyclo-dodecin-9-yl)-1,9-dihydro-6H-purin-6-one]
 | 0.2 µM |  | 11.4 °C | 3.4 °C | Nc1ncnc2c1ncn2[C@@H]1O[C@@H]2COP(=O)(O)OC3C(O)[C@H](n4cnc5c(=O)[nH]cnc54)C[C@@H]3COP(=O)(O)OC2C1O (stereo partly drawn) [Compound 104, 9-((2R,3R,3a5,7aR,9R,10S,10aR,14aR)-2-(6-amino-9H-purin-9-yl)-3,5,10,12-tetrahydroxy-5,12-dioxidodecahydro-2H-cyclopenta[d]furo[3,2-j][1,3,7,9]tetraoxa[2,8]diphosphacyclododecin-9-yl)-1,9-dihydro-6H-purin-6-one]
 | 0.04 µM |  | 14.3 °C | 5.2 °C | Nc1nc2c(ncn2[C@@H]2O[C@@H]3COP(=O)(O)OC4C(O)[C@H](n5cnc6c(N)ncnc65)C[C@@H]4COP(=O)(O)OC3C2O)c(=O)[nH]1 (stereo partly drawn) [Compound 108, 2-amino-9-((2R,3R,3aS,7aR,9R,10S,10aR,14aR)-9-(6-amino-9H-purin-9-yl)-3,5,10,12-tetrahydroxy-5,12-dioxidodecahydro-2H-cyclopenta[d]furo[3,2-j][1,3,7,9]tetraox[2,8]diphosphacyclododecin-2-yl)-1,9-dihydro-6H-purin-6-one]
13.2 °C | 0.12 µM | 5.2 °C |  |  | Nc1nc2c(ncn2[C@@H]2O[C@@H]3COP(=O)(O)OC4C(O)[C@H](n5cnc6c(N)ncnc65)C[C@@H]4COP(=O)(O)OC3C2O)c(=O)[nH]1 (stereo partly drawn) [Compound 112, 2-amino-9-((2R,3S,3aS,7aR,9R,10S,10aR,14aR)-9-(6-amino-9H-purin-9-yl)-3,5,10,12-tetrahydroxy-5,12-dioxidodecahydro-2H-cyclopenta[d]furo[3,2-j][1,3,7,9]tetraoxa[2,8]diphosphacyclododecin-2-yl)-1,9-dihydro-6H-purin-6-one]
 | 3.6 µM |  | 7.9 °C | 2.1 °C | Nc1nc2c(ncn2[C@@H]2C[C@@H]3COP(=O)(O)OC4C(O)[C@H](n5cnc6c(N)ncnc65)O[C@@H]4COP(=O)(O)OC3C2O)c(=O)[nH]1 (stereo partly drawn) [Compound 113, 2-amino-9-((2R,3S,3a5,7aR,9R,10S,10aR,14aR)-2-(6-amino-9H-purin-9-yl)-3,5,10,12-tetrahydroxy-5,12-dioxidodecahydro-2H-cyclopenta[d]furo[3,2-j][1,3,7,9]tetraoxa[2,8]diphosphacyclododecin-9-yl)-1,9-dihydro-6H-purin-6-one]
 | 21.8 µM |  | 4.6 °C | 0.4 °C | COC1C2OP(=O)(O)OC[C@H]3C[C@@H](n4cnc5c(N)ncnc54)C(O)C3OP(=O)(O)OC[C@H]2O[C@H]1n1cnc2c(=O)[nH]c(N)nc21 (stereo partly drawn) [Compound 114, 2-amino-9-((2R,3R,3aR,7aR,9R,10S,10aR,14aR)-9-(6-amino-9H-purin-9-yl)-5,10,12-trihydroxy-3-methoxy-5,12-dioxidodecahydro-2H-cyclopenta[d]furo[3,2-j][1,3,7,9]tetraoxa[2,8]diphosphacyclododecin-2-yl)-1,9-dihydro-6H-purin-6-one]
